Columns and labels:
human DYRK1A and tau = test: Inhibition of tau phosphorylation, ClariCELL Kinase Cell-Based Assay, HEK 293 cells expressing human DYRK1A and tau; conditions: for inhibition at 1 µM: HEK293, read-out: % inhibition at 1 uM, tau phosphorylation, compound 1 uM; for inhibition at 0.25 µM / inhibition at 0.5 µM: HEK293, tau phosphorylation; for inhibition at 0.25 µM: compound 0.25 uM; for inhibition at 0.5 µM: compound 0.5 uM
Procedure: An inhibitory effect on tau phosphorylation was determined using the ClariCELL™ Kinase Cell-Based Assay service (commercially available from CamaBio USA, Inc.). Human embryonic kidney (HEK 293) cells temporarily expressing human DYRK1A and tau were exposed to the compound, and then lysed to release cell proteins. In this case, the released tau was captured on a plate, and a degree of phosphorylation was quantified by ELISA using a tau phosphorylation-specific antibody.

human GST-CLK1 = target: T1, human GST-CLK1 (Homo sapiens, UniProt P49759); test: GST-CLK1 enzyme inhibition, ADP-Glo kinase assay; format: biochemical; conditions: ATP 10 μM, GST-CLK1 129-end
T1 construct: purified human GST-CLK1 (129-end, SignalChem) enzyme; purchased SignalChem
Summary of the method: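 ADP-Glo luminescence read-out, relative to untreated solvent control, gave IC50 (nM) from triplicate data sets. Reactions ran an hour at 25° C with 3 ng GST-CLK1 (residues 129-end), 10 μM ATP and specific substrate in Tris-HCl pH 7.4 buffer with MgCl2, BSA and DTT.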

human GST-DYRK1A = target: T2, human GST-DYRK1A (Homo sapiens, UniProt Q13627); test: GST-DYRK1A enzyme inhibition, ADP-Glo kinase assay; format: biochemical; conditions: ATP 10 μM, GST-DYRK1A full length, read-out: DYRK1 IC50
T2 construct: purified human GST-DYRK1A (full length, Thermo Scientifics) enzyme; purchased Thermo Scientifics
Summary of the method: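 Full-length enzyme (10 ng) was incubated with 10 μM ATP and a specific substrate for 1 h at 25 °C in 40 mM Tris-HCl pH 7.4, 20 mM MgCl2, 0.5 mg/mL BSA, 50 μM DTT. Luminescence was read against a solvent control, and IC50 values were derived from 3 data sets.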

LRRK2 (G2019S) = LRRK2 (G2019S) (Homo sapiens, UniProt Q5S007, G2019S); test: LRRK2 G2019S enzyme inhibition, ADP-Glo kinase assay; format: biochemical; design: purchased SignalChem L10-12GG; conditions: ATP 25 μM
Summary of the method: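 IC50 derived from luminescent ADP-Glo readout against untreated solvent control, twelve final compound concentrations from 50 μM downward. Reaction: recombinant human LRRK2 G2019S enzyme, 25 μM ATP, substrate, pH 7.4 Tris buffer with MgCl2/BSA/DTT, 25° C. for 2 hours.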

LRRK2 = LRRK2 (Homo sapiens, UniProt Q5S007); test: LRRK2 enzyme inhibition, ADP-Glo kinase assay; format: biochemical; design: purchased Invitrogen PR8604B; conditions: ATP 10 μM
Summary of the method: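 ADP-Glo luminescent read-out of ADP formed by purified human LRRK2 enzyme (25 ng), 10 μM ATP, 0.2 μg substrate, 25° C for 2 h, Tris-HCl pH 7.4 buffer with MgCl2, BSA, DTT. Inhibition versus untreated solvent control over twelve final concentrations (50 μM downward) gives IC50.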

T1 sequence (P49759 129-484 limits assumed): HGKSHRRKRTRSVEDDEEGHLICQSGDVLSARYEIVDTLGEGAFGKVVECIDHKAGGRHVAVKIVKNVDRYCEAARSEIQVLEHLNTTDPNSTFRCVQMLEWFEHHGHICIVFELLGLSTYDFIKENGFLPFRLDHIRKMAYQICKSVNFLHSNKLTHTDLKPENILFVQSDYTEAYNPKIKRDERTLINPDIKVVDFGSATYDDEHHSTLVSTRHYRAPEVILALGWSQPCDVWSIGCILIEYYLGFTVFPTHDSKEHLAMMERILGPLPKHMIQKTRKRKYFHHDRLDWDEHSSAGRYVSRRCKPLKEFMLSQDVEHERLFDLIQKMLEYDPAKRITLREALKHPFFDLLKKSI
Chain of LRRK2 (G2019S) (Q5S007 970-2527 G2019S limits assumed): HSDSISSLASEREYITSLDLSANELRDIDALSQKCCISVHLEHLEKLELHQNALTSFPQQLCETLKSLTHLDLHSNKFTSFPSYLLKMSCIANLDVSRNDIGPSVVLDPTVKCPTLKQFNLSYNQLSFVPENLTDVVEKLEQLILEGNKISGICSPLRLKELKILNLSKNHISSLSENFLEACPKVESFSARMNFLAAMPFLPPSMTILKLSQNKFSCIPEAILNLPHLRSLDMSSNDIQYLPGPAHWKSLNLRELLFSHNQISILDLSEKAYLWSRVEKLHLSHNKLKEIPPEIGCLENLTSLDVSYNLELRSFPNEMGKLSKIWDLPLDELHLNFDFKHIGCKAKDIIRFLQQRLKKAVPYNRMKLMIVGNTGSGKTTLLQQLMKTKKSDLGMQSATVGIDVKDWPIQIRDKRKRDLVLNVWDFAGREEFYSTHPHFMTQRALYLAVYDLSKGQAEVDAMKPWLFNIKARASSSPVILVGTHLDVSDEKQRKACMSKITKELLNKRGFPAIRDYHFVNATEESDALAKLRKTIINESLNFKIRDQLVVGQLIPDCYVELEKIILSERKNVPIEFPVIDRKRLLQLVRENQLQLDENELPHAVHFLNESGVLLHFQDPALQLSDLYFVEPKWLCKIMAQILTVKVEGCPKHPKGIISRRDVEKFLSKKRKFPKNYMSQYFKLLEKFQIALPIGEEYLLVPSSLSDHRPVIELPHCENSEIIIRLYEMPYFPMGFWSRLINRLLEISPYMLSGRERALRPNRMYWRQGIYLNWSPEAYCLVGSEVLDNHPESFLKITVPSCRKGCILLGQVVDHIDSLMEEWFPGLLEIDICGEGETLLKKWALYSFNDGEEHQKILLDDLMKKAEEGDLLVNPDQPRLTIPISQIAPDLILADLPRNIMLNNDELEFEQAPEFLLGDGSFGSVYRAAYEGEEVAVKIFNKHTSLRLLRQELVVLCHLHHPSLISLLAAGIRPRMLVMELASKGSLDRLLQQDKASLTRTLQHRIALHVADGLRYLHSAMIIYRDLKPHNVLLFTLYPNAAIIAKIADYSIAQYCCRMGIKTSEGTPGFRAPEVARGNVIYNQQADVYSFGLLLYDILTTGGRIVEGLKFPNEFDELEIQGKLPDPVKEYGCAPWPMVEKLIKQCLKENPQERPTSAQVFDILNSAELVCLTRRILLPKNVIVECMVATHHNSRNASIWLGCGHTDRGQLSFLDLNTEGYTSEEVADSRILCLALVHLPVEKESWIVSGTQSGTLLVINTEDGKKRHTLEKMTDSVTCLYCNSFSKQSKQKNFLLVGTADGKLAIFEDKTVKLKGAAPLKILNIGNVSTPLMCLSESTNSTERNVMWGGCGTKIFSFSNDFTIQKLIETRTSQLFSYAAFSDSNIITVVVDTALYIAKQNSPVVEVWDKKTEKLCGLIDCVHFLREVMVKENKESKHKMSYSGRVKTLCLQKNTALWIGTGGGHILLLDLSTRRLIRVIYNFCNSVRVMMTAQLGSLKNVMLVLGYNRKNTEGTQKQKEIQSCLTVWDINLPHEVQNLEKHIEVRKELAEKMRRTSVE
Chain of LRRK2 (Q5S007 970-2527 limits assumed): as the sequence (Q5S007 970-2527 G2019S limits assumed) above, with S1050G counted along it

SMILES | IC50 (human GST-CLK1) [nM] | IC50 (human GST-DYRK1A) [nM] | IC50 (LRRK2 (G2019S)) [nM] | IC50 (LRRK2) [nM] | inhibition at 1 µM (human DYRK1A and tau) [%] | inhibition at 0.25 µM (human DYRK1A and tau) [%] | inhibition at 0.5 µM (human DYRK1A and tau) [%]
N#Cc1c[nH]c2nc(Nc3ccc(C(=O)N4CCC(N5CCOCC5)CC4)c4c3OCC4)nc(NCC3CCCC3)c12 [Example 343, 4-((cyclo-pentylmeth-yl)amino)-2-((4-(4-morpholinopiperidine-- 1-carbonyl)-2,3-dihydro-benzofuran-7-yl)amino)-7H-pyrrolo[2,3-d]pyrimidine-5-carbonitrile] | 301 to 1000 | 301 to 1000 | < 100 |  | 52 | -44.3 | 16.7
CC[C@H](C)Nc1nc(Nc2ccc(C(=O)N3CCC(N4CCOCC4)CC3)c3c2OCC3)nc2[nH]cc(C#N)c12 [Example 357, (S)-4-(sec-butylamino)-2-((4-(4-morpholino-piperidine-1-carbonyl)-2,3-dihydro-benzofuran-7-yl)amino)-7H-pyrrolo[2,3-d]pyrimidine-5-carbonitrile] | < 100 | 301 to 1000 | < 100 |  | 35.4 | 19.7 | 33.1
COc1cc(S(C)(=O)=O)ccc1Nc1nc(NC2CC2)c2c(C(F)(F)F)c[nH]c2n1 [Example 376, N^4-cyclopropyl-N^2-(2-methoxy-4-(methylsulfonyl)phenyl)-5-(trifluoromethyl)-7H-pyrrolo[2,3-d]pyrimidine-2,4-diamine] | 101 to 300 | 301 to 1000 | < 100 | < 100 |  |  | 
O=C(c1ccc(Nc2nc(NC3CCC3)c3c(C(F)(F)F)c[nH]c3n2)c2c1OCCO2)N1CCC(N2CCOCC2)CC1 [Example 378, (8-((4-(cyclobutyl-amino)-5-(trifluoromethyl)-7H-pyrrolo[2,3-d]pyrimidin-2-yl)amino)-2,3-dihydrobenzo[b] [1,4]dioxin-5-yl) (4-morpholino-piperidin-1-yl)methanone] | < 100 | 101 to 300 | < 100 | < 100 |  |  | 
O=C(c1ccc(Nc2nc(NCC3CC3)c3c(C(F)(F)F)c[nH]c3n2)c2c1OCCO2)N1CCN(C2COC2)CC1 [Example 422, (8-((4-((cyclo-propylmeth-yl)amino)-5-(trifluoromethyl)-7H-pyrrolo[2,3-d]pyrimidin-2-yl)amino)-2,3-dihydrobenzo[b] [1,4]dioxin-5-yl) (4-(oxetan-3-yl)piperazin-1-yl)methanone] | < 100 | 301 to 1000 | < 100 |  | 33.2 | 7.4 | 19.6
COc1cc(P2(=O)CCN(C3CC3)CC2)ccc1Nc1nc(NC(C)C)c2c(C(F)(F)F)c[nH]c2n1 [Example 440, 1-cyclopropyl-4-(4-((4-(isopropylamino)-5-(trifluoromethyl)-7H-pyrrolo[2,3-d]pyrimidin-2-yl)amino)-3-methoxyphenyl)-1,4-azaphosphinane 4-oxide] | 301 to 1000 | 301 to 1000 | < 100 |  | 36.3 | 9.6 | 27.8
CC(C)Nc1nc(Nc2ccc(C(=O)N3CCN(C4COC4)CC3)c3c2OCCO3)nc2[nH]cc(C(F)(F)F)c12 [Example 441, (8-((4-(isopropylamino)-5-(trifluoromethyl)-7H-pyrrolo[2,3-d]pyrimidin-2-yl)amino)-2,3-dihydrobenzo[b] [1,4]dioxin-5-yl) (4-(oxetan-3-yl)piperazin-1-yl)methanone] | < 100 | 101 to 300 |  |  | 75.5 | 19.6 | 57.4
O=C(c1ccc(Nc2nc(NCC3CCCC3)c3c(C(F)(F)F)c[nH]c3n2)c2c1CCO2)N1CCC(N2CCOCC2)CC1 [Example 464, (7-((4-((cyclo-pentylmeth-yl)amino)-5-(trifluoromethyl)-7H-pyrrolo[2,3-d]pyrimidin-2-yl)amino)-2,3-dihydrobenzo-furan-4-yl)(4-morpholino-piperidin-1-yl)methanone] | 301 to 1000 | 301 to 1000 | < 100 |  | 44.2 | 11.5 | 12.4
CCCCNc1nc(Nc2ccc(C(=O)N3CCC(N4CCOCC4)CC3)c3c2OCC3)nc2[nH]cc(C(F)(F)F)c12 [Example 466, (7-((4-(butylamino)-5-(trifluoromethyl)-7H-pyrrolo[2,3-d]pyrimidin-2-yl)amino)-2,3-dihydrobenzo-furan-4-yl)(4-morpholino-piperidin-1-yl)methanone] | 301 to 1000 | 301 to 1000 | < 100 |  | 71.3 | 9.5 | 39.2

Continued, in another order:

IC50 (human GST-CLK1) [nM] | IC50 (human GST-DYRK1A) [nM] | IC50 (LRRK2 (G2019S)) [nM] | IC50 (LRRK2) [nM] | SMILES | inhibition at 1 µM (human DYRK1A and tau) [%] | inhibition at 0.25 µM (human DYRK1A and tau) [%] | inhibition at 0.5 µM (human DYRK1A and tau) [%]
< 100 | < 100 |  |  | CNc1nc(Nc2ccc(C(=O)N3CCOCC3)c3c2OCC3)nc2[nH]cc(C(F)(F)F)c12 [Example 218, (7-((4-(methylamino)-5-(trifluoromethyl)-7H-pyrrolo[2,3-d]pyrimidin-2-yl)amino)-2,3-dihydrobenzofuran-4-yl)(morpholino)methanone] | 99.4 | 57.7 | 84.3
< 100 | 301 to 1000 |  |  | N#Cc1c[nH]c2nc(Nc3ccc(C(=O)N4CCN(C5COC5)CC4)c4c3OCCO4)nc(N[C@H]3CCOC3)c12 [Example 315, (S)-2-((8-(4-(oxetan-3-yl)piperazine-1-carbonyl)-2,3-dihydrobenzo[b] [1,4]dioxin-5-yl)amino)-4-((tetrahydrofuran-3-yl)amino)-7H-pyrrolo[2,3-d]pyrimidine-5-carbonitrile] | 16.6 | -1.8 | 8.4
< 100 | 301 to 1000 |  |  | N#Cc1c[nH]c2nc(Nc3ccc(C(=O)N4CCN(C5COC5)CC4)c4c3OCCO4)nc(NC3CCOCC3)c12 [Example 316, 2-((8-(4-(oxetan-3-yl)piperazine-1-carbonyl)-2,3-dihydrobenzo[b] [1,4]dioxin-5-yl)amino)-4-((tetrahydro-2H-pyran-4-yl)amino)-7H-pyrrolo[2,3-d]pyrimidine-5-carbonitrile] | 15.8 | 2.3 | 8.3
< 100 | 101 to 300 |  |  | CNc1nc(Nc2ccc(C(=O)N3CC(CO)(CO)C3)c3c2OCCO3)nc2[nH]cc(C#N)c12 [Example 325, 2-((8-(3,3-bis(hydroxy-methyl)azetidine-1-carbonyl)-2,3-dihydrobenzo[b] [1,4]dioxin-5-yl)amino)-4-(methylamino)-7H-pyrrolo[2,3-d]pyrimidine-5-carbonitrile] | 1.9 | 6.3 | 13.5
< 100 | 101 to 300 |  |  | CCNc1nc(Nc2ccc(C(=O)N3CC(CO)(CO)C3)c3c2OCCO3)nc2[nH]cc(C#N)c12 [Example 326, 2-((8-(3,3-bis(hydroxy-methyl)azetidine-1-carbonyl)-2,3-dihydrobenzo[b] [1,4]dioxin-5-yl)amino)-4-(ethylamino)-7H-pyrrolo[2,3-d]pyrimidine-5-carbonitrile] | -1.8 | -0.6 | 13.6

Reference: patent US20230066011A1, “PYRROLOPYRIMIDINE DERIVATIVE, AND PHARMACEUTICAL COMPOSITION FOR PREVENTING OR TREATING PROTEIN KINASE-RELATED DISEASE COMPRISING SAME AS ACTIVE INGREDIENT” (VORONOI CO., LTD., priority 2019, published 2023)
